Results on seven compounds are retold here after US12281139B2, “Mogrosides, methods of obtaining the same, and uses” (The Coca-Cola Company, priority 2018, dated 2025).

What all share (format): in vivo
A short description of assay [1]: Sensory evaluation of CC-00367 and CC-00371 vs Reb M 95% (trained sensory panel taste test, mock beverage samples, 400 ppm in water at 4° C.). As to conditions: mean panel score; for Bitter Aftertaste Intensity: bitter intensity 1 minute after tasting; for Overall Max Sweetness: from the time the sip is taken up to 1 minute; for Bitter Intensity In Mouth: maximum level of bitterness in mouth during 5 seconds; for Sweet Intensity In Mouth: maximum level of sweetness in mouth during 5 seconds; for Sweet Linger Intensity: sweet intensity 1 minute after tasting. The protocol:
FIG. 1: Taste attribute comparison of CC-00371 and CC-00367 compared to Reb M 95% (all at 400 ppm) in water at 4° C.
(§1) The following mock beverage samples were prepared:
(§2) A trained sensory panel conducted the taste test. Samples were served at approximately 4° C. Panelists were instructed to take 1 sip of the sample, hold in mouth for 5 seconds, expectorate, and rate the given attributes. A 5 minute break was placed between each sample and panelists were instructed to cleanse their palates with at least 1 bite of unsalted cracker and 2 sips of filtered water. Samples were randomized within each session for each panelist.
(§3) The following attributes were evaluated: • Sweet taste intensity: maximum level of sweetness in mouth during 5 seconds • Bitter taste intensity: maximum level of bitterness in mouth during 5 seconds • Overall maximum sweet intensity: maximum sweet intensity experienced from the time the sip is taken up to 1 minute • Overall maximum bitter intensity: maximum sweet intensity experienced from the time the sip is taken up to 1 minute • Sweet linger intensity: sweet intensity 1 minute after tasting the sample • Bitter aftertaste intensity: bitter intensity 1 minute after tasting the sample
(§4) An ANOVA, with Sample as fixed effects and Panelist as random effects was used to determine significance between the samples for each attribute at the 90% and 95% Confidence Level, two-tailed. Fishers LSD was used to determine significant differences between mean scores.
The results are shown in Table 75 and depicted in FIG. 1: […]

Assay in assay [2]: as above
To be noted: mean panel score, from the time the sip is taken up to 1 minute.

Assay [3] in a line: Sensory evaluation of CC-00436 vs 5% Sucrose (trained sensory panel taste test, mock beverages at 4° C.). As to conditions: mean ± standard deviation, CC-00436 400 ppm in water, reference 5% sucrose. Details: Sweetness In Mouth / Sweetness Overall Max / Bitterness In Mouth / Bitterness Overall Max: scale not given here. The procedure:
The following mock beverages were prepared: A trained sensory panel conducted the taste test. Samples were served at approximately 4° C. Panelists were instructed to take 1 sip of the sample, hold in mouth for 5 seconds, expectorate, and rate the given attributes. A 5 minute break was placed between each sample and panelists were instructed to cleanse their palates with at least 1 bite of unsalted cracker and 2 sips of filtered water. Samples were randomized within each session for each panelist. The following attributes were evaluated: • Sweet taste intensity: maximum level of sweetness in mouth during 5 seconds • Bitter taste intensity: maximum level of bitterness in mouth during 5 seconds • Overall maximum sweet intensity: maximum sweet intensity experienced from the time the sip is taken up to 1 minute • Overall maximum bitter intensity: maximum sweet intensity experienced from the time the sip is taken up to 1 minute • Sweet linger intensity: sweet intensity 1 minute after tasting the sample • Bitter aftertaste intensity: bitter intensity 1 minute after tasting the sample

Assay [4] can be described thus: Sensory evaluation of CC-00401 and CC-00403 vs 7% Sucrose (trained sensory panel taste test, mock beverage samples at 4° C.). Details: Sweetness In Mouth / Sweetness Overall Max / Bitterness In Mouth / Bitterness Overall Max: scale not given here. To be noted: mean ± standard deviation, test sweeteners 400 ppm in water, reference 7% sucrose. The procedure:
as §1, §2, §3, §4

As for `C[C@H](CC[C@@H](O[C@@H]1O[C@H](CO[C@@H]2O[C@H](CO)[C@@H](O)[C@H](O)[C@H]2O)[C@@H](O)[C@H](O)[C@H]1O[C@@H]1O[C@H](CO)[C@@H](O)[C@H](O)[C@H]1O)C(C)(C)O)[C@H]1CC[C@@]2(C)[C@@H]3CC=C4[C@@H](CC[C@H](O[C@@H]5O[C@H](CO[C@@H]6O[C@H](CO)[C@@H](O)[C@H](O)[C@H]6O)[C@@H](O)[C@H](O)[C@H]5O)C4(C)C)[C@]3(C)[C@H](O)C[C@]12C` [Mog V], in assay [1], the “Bitter Aftertaste Intensity” value is recorded as 0.4, the “Overall Max Sweetness” value is reported as 8.5, the “Bitter Intensity In Mouth” value stood at 0.5 and the “Sweet Intensity In Mouth” value came to 7.0. Besides, the “Sweet Linger Intensity” value in assay [1] is on record as 3.5. The “Overall Max Bitterness**” value in assay [2] is 1.1.

Regarding `C[C@H](CC[C@@H](O[C@@H]1OC(CO[C@@H]2OC(CO)[C@@H](O)[C@H](O)C2O)C(O)[C@@H](O)C1O[C@@H]1OC(CO)[C@@H](O[C@@H]2OC(CO)[C@@H](O)[C@H](O)C2O)[C@H](O)C1O)C(C)(C)O)[C@H]1CC[C@@]2(C)C3CC=C4[C@@H](CC[C@H](O[C@@H]5OC(CO[C@@H]6OC(CO)[C@@H](O)[C@H](O)C6O)[C@@H](O)[C@H](O)C5O)C4(C)C)[C@]3(C)[C@H](O)C[C@]12C` (stereo partly drawn) [CC-00367, mogro-3-O-[β-D-glucopyranosyl (1→6)-β-D-glucopyranoside]-24-O-{[(β-D-glucopyranosyl-(1→4))-β-D-glucopyranosyl-(1→2)]-[β-D-glucopyranosyl-(1→6)]-β-D-glucopyranoside}], in assay [1], the “Bitter Aftertaste Intensity” value was 1.4 B, the “Overall Max Sweetness” value is 4.9 B, the “Bitter Intensity In Mouth” value is listed as 1.3 B and the “Sweet Intensity In Mouth” value is on record as 3.8 B. Further, the “Sweet Linger Intensity” value in assay [1] was 2.6 B. In addition, the “Overall Max Bitterness**” value in assay [2] came to 2.2 B.

As for `C[C@H](CC[C@@H](O[C@@H]1OC(CO[C@@H]2OC(CO)[C@@H](O)[C@H](O)C2O)C(O)[C@@H](O)C1O[C@@H]1OC(CO)[C@@H](O)[C@H](O)C1O)C(C)(C)O)[C@H]1CC[C@@]2(C)C3CC=C4[C@@H](CC[C@H](O[C@@H]5OC(CO[C@@H]6OC(CO[C@H]7OC(CO)[C@@H](O)[C@H](O)C7O)[C@@H](O)[C@H](O)C6O)[C@@H](O)[C@H](O)C5O)C4(C)C)[C@]3(C)[C@H](O)C[C@]12C` (stereo partly drawn) [CC-00436, mogro-3-O-[α-D-glucopyranosyl-(1→6)-β-D-glucopyranosyl (1→6)-β-D-glucopyranoside]-24-O-{[β-D-glucopyranosyl-(1→2)]-[β-D-glucopyranosyl-(1→6)]-β-D-glucopyranoside}], in assay [3], the “Bitterness In Mouth” value was found to be 1.5 ± 1.9, the “Bitterness Linger (~60 sec)” value amounted to 0.7 ± 0.8, the “Bitterness Overall Max” value was 2.1 ± 1.7 and the “Sweetness In Mouth” value is given as 5.2 ± 2.1. Also, in assay [3], the “Sweetness Linger (~60 sec)” value came to 2.9 ± 2.5 and the “Sweetness Overall Max” value is 5.7 ± 2.1.

Consider “mogro-3-O-[β-D-glucopyranosyl (1→6)-β-D-glucopyranoside]-24-O-{[β-D-glucopyranosyl-(1→2)]-[(β-D-glucopyranosyl-(1β3))-β-D-glucopyranosyl-(1β6)]-β-D-glucopyranoside} [CC-00371]”, for which, in assay [1], the “Bitter Aftertaste Intensity” value turned out to be 1.5 B, the “Overall Max Sweetness” value is 9.3 A, the “Bitter Intensity In Mouth” value was determined as 0.9 B and the “Sweet Intensity In Mouth” value came to 7.5 A. Moreover, the “Sweet Linger Intensity” value in assay [1] is 5.8 A. Also, in assay [2], the “Overall Max Bitterness**” value was 2.1 B.

Consider `OC[C@H]1O[C@@](CO)(O[C@H]2O[C@H](CO)[C@@H](O)[C@H](O)[C@H]2O)[C@@H](O)[C@@H]1O` [Sucrose, sucrose, reference compound], for which, in assay [3], the “Bitterness In Mouth” value is reported as 0.15 ± 0.2, the “Bitterness Linger (~60 sec)” value is 0.1 ± 0.1, the “Bitterness Overall Max” value is reported as 0.3 ± 0.3 and the “Sweetness In Mouth” value is recorded as 4.3 ± 2.1. Further, in assay [3], the “Sweetness Linger (~60 sec)” value was found to be 1.6 ± 1.8 and the “Sweetness Overall Max” value was determined as 4.5 ± 1.9. In assay [4], the “Bitterness In Mouth” value turned out to be 2.3 ± 2.3, the “Bitterness Linger (~60 sec)” value came to 0.8 ± 1.1, the “Bitterness Overall Max” value is given as 2.8 ± 2.1 and the “Sweetness In Mouth” value is recorded as 7.2 ± 0.9. In assay [4], the “Sweetness Linger (~60 sec)” value came to 2.1 ± 1.8 and the “Sweetness Overall Max” value is given as 7.4 ± 0.8.

With `C=C1C[C@@]23CC[C@H]4[C@@](C)(CCC[C@@]4(C)C(=O)O[C@@H]4O[C@H](CO)[C@@H](O)[C@H](O[C@@H]5O[C@H](CO)[C@@H](O)[C@H](O)[C@H]5O)[C@H]4O[C@@H]4O[C@H](CO)[C@@H](O)[C@H](O)[C@H]4O)[C@@H]2CC[C@]1(O[C@@H]1O[C@H](CO)[C@@H](O)[C@H](O[C@@H]2O[C@H](CO)[C@@H](O)[C@H](O)[C@H]2O)[C@H]1O[C@@H]1O[C@H](CO)[C@@H](O)[C@H](O)[C@H]1O)C3` [Reb M 95%, rebaudioside M, reference compound], in assay [1], the “Bitter Aftertaste Intensity” value is 1.7 B, the “Overall Max Sweetness” value is recorded as 9.2 A, the “Bitter Intensity In Mouth” value worked out at 1.0 B and the “Sweet Intensity In Mouth” value is on record as 8.0 A. In assay [1], the “Sweet Linger Intensity” value came to 5.3 A. In addition, in assay [2], the “Overall Max Bitterness**” value was found to be 2.0 B.

On to `C[C@H](CC[C@@H](O[C@@H]1O[C@H](CO[C@@H]2O[C@H](CO[C@@H]3O[C@H](CO)[C@@H](O)[C@H](O)[C@H]3O)[C@@H](O)[C@H](O)[C@H]2O)[C@@H](O)[C@H](O)[C@H]1O[C@@H]1O[C@H](CO)[C@@H](O)[C@H](O)[C@H]1O)C(C)(C)O)[C@H]1CC[C@@]2(C)[C@@H]3CC=C4[C@@H](CC[C@H](O[C@@H]5O[C@H](CO[C@@H]6O[C@H](CO)[C@@H](O)[C@H](O)[C@H]6O)[C@@H](O)[C@H](O)[C@H]5O)C4(C)C)[C@]3(C)[C@H](O)C[C@]12C` [CC-00403], for which, in assay [4], the “Bitterness In Mouth” value was 2.6 ± 3.0, the “Bitterness Linger (~60 sec)” value stood at 2.2 ± 3.4, the “Bitterness Overall Max” value turned out to be 5.0 ± 3.4 and the “Sweetness In Mouth” value came out at 6.3 ± 1.4. Moreover, in assay [4], the “Sweetness Linger (~60 sec)” value amounted to 3.1 ± 2.5 and the “Sweetness Overall Max” value worked out at 7.0 ± 1.5.
